Results reported in PMC9962735, “Synthesis and Cytotoxic Activity of the Derivatives of N-(Purin-6-yl)aminopolymethylene Carboxylic Acids and Related Compounds” (Molecules, 2023).

How the values were obtained:
[1] = MTT cytotoxicity assay, WI-38 normal cells; assay type: cell-based; conditions: human, WI-38 lung fibroblasts (normal cells); for CC50 at 72 h: WI-38, 72 h incubation, MTT
Source text: (§1) The cytotoxicity of the test compounds was studied using the MTT assay against a number of cell lines: CT-26 murine colon carcinoma, 4T1 murine mammary carcinoma, MDA-MB-231 human breast adenocarcinoma, COLO201 human colorectal adenocarcinoma, HepG2 human hepatocellular carcinoma, A549 human non-small-cell lung carcinoma, SK-BR-3 human breast adenocarcinoma, SNU-1 human gastric carcinoma, Jurkat human acute T-lymphoblastic leukemia, and WI-38 human lung fibroblasts (normal cells). Doxorubicin (Dox) was used as a reference drug. Cells were incubated with test compounds for 72 h.
(§2) Cells were seeded in flat-bottomed 96-well plates at 10,000 cells per well (for A549, SNU-1, WI-38, CT-26, MDA-MB-231, 4T1, and HepG2 cells) or 20,000 cells per well (for SK-BR-3, Jurkat, and COLO201 cells) and cultivated in complete culture mediums (for composition of each medium, see the Supplementary Materials, Table S1) in a CO2 incubator at 37 °C. At the first stage of this study, the test compounds dissolved in DMSO were added to the wells with cells at final concentrations from 1 × 10^–4 to 1 × 10^–10 mol/L (A549, SK-BR-3, SNU-1, Jurkat, and WI-38) or 1 × 10^–3 to 1 × 10^–8 mol/L (CT-26, MDA-MB-231, 4T1, COLO201, and HepG2); DMSO concentration in the wells was finally 1%. A complete cultural medium and DMSO were added to the control wells at the same concentration as in the experimental wells; 0.1% Triton X-100 solution (10 µL) was added to the corresponding wells as a non-specific positive control. After adding the test compounds, the cells were incubated for 72 h in an atmosphere containing 5% CO2. After that, the nutrient medium was removed from each well (in the case of SK-BR-3, Jurkat, and COLO201, plates were pre-centrifuged at 1500 rpm for 6 min). A solution of the commercial anticancer agent Doxorubicin (Dox, Sigma-Aldrich, St. Louis, MO, USA) in DMSO was used as a reference drug. Then, 150 µL of a complete medium with the MTT reagent (PanEco, Moscow, Russia) at a concentration of 0.5 mg/mL was added and incubated for 2 h. Formazan crystals were dissolved in DMSO (200 µL) and the absorbance in the wells was measured at 540 nm and a reference wavelength of 650 nm (Sunrise, Tecan, Groding, Austria). Experiments were performed in three parallel runs. Cell viability after incubation in the presence of test compounds was calculated in relation to cell viability in the control wells according to the Formula (1):Cell viability (%) = (Aexp/Ac) × 100,(1) where Aexp is the optical density of solutions in the wells containing test compounds; Ac is the optical density of solutions in control wells without test compounds. For detailed information on cell viability of various cell lines, see the Supplementary Materials, Figures S21–S26.
(§3) At the second stage of this study, in order to more accurately calculate the CC50 (the half maximal inhibitory concentration), the cytotoxic effect of test compounds was evaluated at concentrations close to CC50 found at the first stage. The study of the cytotoxic activity of each substance towards the cells of each line was carried out in triplicate; the mean value was used to calculate CC50. The CC50 values were determined by non-linear regression analysis using Graph-Pad Prism7.

[2] = MTT cytotoxicity assay, A549; assay type: cell-based, human; conditions: human, read-out: SCI (selective cytotoxicity index)
Source text: as §1, §2, §3

[3] = system: A549 human non-small-cell lung carcinoma; test: MTT cytotoxicity assay, A549; assay type: cell-based; conditions: Homo sapiens; for CC50: A549, 72 h, A549, 72 h incubation, MTT
Source text: as §1, §2, §3

[4] = MTT cytotoxicity assay, SK-BR-3; assay type: cell-based, human; conditions: human, read-out: SCI (selective cytotoxicity index)
Source text: as §1, §2, §3

[5] = system: SK-BR-3 human breast adenocarcinoma; test: MTT cytotoxicity assay, SK-BR-3; assay type: cell-based; conditions: Homo sapiens; for CC50: SK-BR-3, 72 h, SK-BR-3, 72 h incubation, MTT
Source text: as §1, §2, §3

[6] = MTT cytotoxicity assay, SNU-1; assay type: cell-based, human; conditions: human, read-out: SCI (selective cytotoxicity index)
Source text: as §1, §2, §3

[7] = system: SNU-1 human gastric carcinoma; test: MTT cytotoxicity assay, SNU-1; assay type: cell-based; conditions: Homo sapiens; for CC50: SNU1, 72 h, SNU-1, 72 h incubation, MTT
Source text: as §1, §2, §3

[8] = MTT cytotoxicity assay, Jurkat; assay type: cell-based, human; conditions: human, read-out: SCI (selective cytotoxicity index)
Source text: as §1, §2, §3

[9] = system: Jurkat human acute T-lymphoblastic leukemia; test: MTT cytotoxicity assay, Jurkat; assay type: cell-based; conditions: Homo sapiens, Jurkat; for CC50: 72 h, 72 h incubation, MTT
Source text: as §1, §2, §3

[10] = system: A549, SK-BR-3, SNU-1, Jurkat, WI-38 cell lines; test: MTT cytotoxicity assay, cell line panel (result in words); assay type: cell-based, human; conditions: 72 h
Source text: as §1
The cytotoxicity of compounds 2a–c, 6, 7, and 9 was also studied using the MTT assay against a number of tumor cell lines: A549, SK-BR-3, SNU-1, Jurkat, as well as normal fibroblasts WI-38 (Table 3).
as §2, §3

[11] = system: herpes simplex virus type 1 (HSV-1), including acyclovir-resistant HSV-1 strain; design: method as in doi:10.1002/ejoc.201900727, doi:10.1515/pac-2019-1214, doi:10.1007/s10593-021-02929-z; conditions: HSV-1 including acyclovir-resistant strain; cited from earlier work
[12] = MTT cytotoxicity assay, CT-26; assay type: cell-based, murine; conditions: mouse (CT-26) and human (WI-38); CC50 of WI-38 divided by CC50 of CT-26; read-out: SCI (selective cytotoxicity index)
Source text: as §1, §2, §3

[13] = system: CT-26 murine colon carcinoma; test: MTT cytotoxicity assay, CT-26; assay type: cell-based; conditions: Mus musculus, CT26; for CC50: CT-26, 72 h incubation, MTT, n = 3
Source text: as §1, §2, §3

[14] = MTT cytotoxicity assay, 4T1; assay type: cell-based, murine; conditions: mouse (4T1) and human (WI-38); CC50 of WI-38 divided by CC50 of 4T1; read-out: SCI (selective cytotoxicity index)
Source text: as §1, §2, §3

[15] = system: 4T1 murine mammary carcinoma; test: MTT cytotoxicity assay, 4T1; assay type: cell-based; conditions: Mus musculus; for CC50: 4T1, 72 h incubation, MTT, n = 3
Source text: as §1, §2, §3

[16] = MTT cytotoxicity assay, MDA-MB-231; assay type: cell-based, human; conditions: human; CC50 of WI-38 divided by CC50 of MDA-MB-231; read-out: SCI (selective cytotoxicity index)
Source text: as §1, §2, §3

[17] = system: MDA-MB-231 human breast adenocarcinoma; test: MTT cytotoxicity assay, MDA-MB-231; assay type: cell-based; conditions: Homo sapiens; for CC50: MDA-MB-231, 72 h incubation, MTT, n = 3
Source text: as §1, §2, §3

[18] = MTT cytotoxicity assay, COLO201; assay type: cell-based, human; conditions: human; CC50 of WI-38 divided by CC50 of COLO201; read-out: SCI (selective cytotoxicity index)
Source text: as §1, §2, §3

[19] = system: COLO201 human colorectal adenocarcinoma; test: MTT cytotoxicity assay, COLO201; assay type: cell-based; conditions: Homo sapiens, COLO 201; for CC50: COLO201, 72 h incubation, MTT, n = 3
Source text: as §1, §2, §3

[20] = MTT cytotoxicity assay, HepG2; assay type: cell-based, human; conditions: human; CC50 of WI-38 divided by CC50 of HepG2; read-out: SCI (selective cytotoxicity index)
Source text: as §1, §2, §3

[21] = system: HepG2 human hepatocellular carcinoma; test: MTT cytotoxicity assay, HepG2; assay type: cell-based; conditions: Homo sapiens; for CC50: HepG2, 72 h incubation, MTT, n = 3
Source text: as §1, §2, §3

[22] = Solubility in aqueous media; assay type: physicochemical; conditions: result in words
[23] = CC50 of WI-38 divided by CC50 of A549 (Table 3)
[24] = CC50 of WI-38 divided by CC50 of SK-BR-3 (Table 3)
[25] = CC50 of WI-38 divided by CC50 of SNU-1 (Table 3)
[26] = CC50 of WI-38 divided by CC50 of Jurkat (Table 3)
[27] = CC50 of WI-38 divided by CC50 of A549 (Table 1)
[28] = CC50 of WI-38 divided by CC50 of SK-BR-3 (Table 1)
[29] = CC50 of WI-38 divided by CC50 of SNU-1 (Table 1)
[30] = CC50 of WI-38 divided by CC50 of Jurkat (Table 1)

| Structure (SMILES) | CC50 at 72 h ([1]; n = 3 (Table 3)) | selectivity ratio at 72 h [2, 23] | CC50 ([3]; n = 3 (Table 3)) | selectivity ratio at 72 h [4, 24] | CC50 ([5]; n = 3 (Table 3)) | selectivity ratio at 72 h [6, 25] | CC50 ([7]; n = 3 (Table 3)) | selectivity ratio at 72 h [8, 26] | CC50 ([9]; n = 3 (Table 3)) | cytotoxic activity (in words) [10] | CC50 at 72 h ([1]; n = 3) | selectivity ratio at 72 h [12] | CC50 [13] | selectivity ratio at 72 h [14] | CC50 [15] | selectivity ratio at 72 h [16] | CC50 [17] | selectivity ratio at 72 h [18] | CC50 [19] | selectivity ratio at 72 h [20] | further results |
| --- | --- | --- | --- | --- | --- | --- | --- | --- | --- | --- | --- | --- | --- | --- | --- | --- | --- | --- | --- | --- | --- |
| CC1COc2c(ccc(F)c2F)N1C(=O)CCCCCNc1ncnc2[nH]cnc12 (stereo not shown) [Compound 1b] | 98 µM | 1.8 | 53 µM | ≤ 0.98 | > 100 µM | 4.9 | 20 µM | 1.5 | 67 µM | showed cytotoxic activity | – | – | – | – | – | – | – | – | – | – | antiviral activity in vitro against HSV-1 [11]: high antiviral activity |
| CC1COc2c(ccc(F)c2F)N1C(=O)CCCCCCCCCCCNc1ncnc2[nH]cnc12 (stereo not shown) [Compound 1e] | – | – | – | – | – | – | – | – | – | – | 71 µM | 21 | 3.4 µM | 145 | 0.49 µM | 5.9 | 12 µM | 20 | 3.5 µM | 14 | viability at 72 h ([1]; WI-38, 1 × 10^–4 M, mean ± SD (n = 3), read-out: Cell viability): 22 ± 7%; viability at 100 µM ([13]; CT-26, 1 × 10^–4 M, mean ± SD (n = 3), read-out: Cell viability): 3 ± 2%; viability at 100 µM ([15]; 4T1, 1 × 10^–4 M, mean ± SD (n = 3), read-out: Cell viability): 2 ± 2%; viability at 100 µM ([17]; MDA-MB-231, 1 × 10^–4 M, mean ± SD (n = 3), read-out: Cell viability): 7 ± 5%; viability at 100 µM ([19]; COLO201, 1 × 10^–4 M, mean ± SD (n = 3), read-out: Cell viability): 2 ± 1%; viability at 100 µM ([21]; HepG2, 1 × 10^–4 M, mean ± SD (n = 3), read-out: Cell viability): 2 ± 1%; CC50 [21]: 5.2 µM; selectivity ratio at 72 h [2, 27]: 0.95; CC50 ([3]; n = 3 (Table 1)): 75 µM; viability at 100 µM ([3]; A549, 1 × 10^–4 M, mean ± SD (n = 3)): 6%; selectivity ratio at 72 h [4, 28]: 0.83; CC50 ([5]; n = 3 (Table 1)): 85 µM; viability at 100 µM ([5]; SK-BR-3, 1 × 10^–4 M, mean ± SD (n = 3), read-out: Cell viability): 9 ± 2%; selectivity ratio at 72 h [6, 29]: 12; CC50 ([7]; n = 3 (Table 1)): 6 µM; viability at 100 µM ([7]; SNU1, SNU-1, 1 × 10^–4 M, mean ± SD (n = 3), read-out: Cell viability): 5 ± 1%; selectivity ratio at 72 h [8, 30]: 18; CC50 ([9]; n = 3 (Table 1)): 4 µM; viability at 100 µM ([9]; 1 × 10^–4 M, mean ± SD (n = 3), read-out: Cell viability): 10 ± 4% |
| CC1COc2c(ccc(F)c2F)N1C(=O)CCCCCCCCCCCCCCNc1ncnc2[nH]cnc12 (stereo not shown) [Compound 1f] | – | – | – | – | – | – | – | – | – | – | 35 µM | 12 | 3 µM | 15 | 2.3 µM | 1.4 | 28 µM | 27 | 1.3 µM | 3.6 | CC50 [21]: 9.7 µM; selectivity ratio at 72 h [2, 27]: 0.58; CC50 ([3]; n = 3 (Table 1)): 60 µM; selectivity ratio at 72 h [4, 28]: 0.35; CC50 ([5]; n = 3 (Table 1)): 99 µM; selectivity ratio at 72 h [6, 29]: 5.8; CC50 ([7]; n = 3 (Table 1)): 6 µM; selectivity ratio at 72 h [8, 30]: 1.1; CC50 ([9]; n = 3 (Table 1)): 32 µM |
| CC1COc2c(ccc(F)c2F)N1C(=O)CCCCCCCCCCNc1ncnc2c1ncn2COCCO (stereo not shown) [Compound 7, 4-{11-[9-(2-Hydroxyethoxy)methylpurin-6-yl]aminoundecanoyl}-7,8-difluoro-3,4-dihydro-3-methyl-2H-[1,4]benzoxazine] | 14 µM | 1.5 | 9.4 µM | 0.33 | 42 µM | 3.8 | 3.7 µM | 1.9 | 7.3 µM | approximately the same cytotoxicity as the most active compound 1d | – | – | – | – | – | – | – | – | – | – | solubility in aqueous media [22]: not possible to achieve a significant increase in the solubility |
